Measurements published in patent publication US20250381168A1, “VLA4 INHIBITORS AND USES THEREOF” (Washington University, priority 2022, published 2025).
Entries after “also recorded” stand apart in the source; their conditions may differ. Read-outs that look alike come from different tables or passages of the source. Each block holds one compound with its values, some of them ahead of it.

Experiments:
integrin a4b7 = integrin a4b7 (Homo sapiens (Human), UniProt P13612+P26010); experiment: a4b7 solid phase receptor assay (SPRA); conditions: recombinant human a4b7 binding to plate-coated human VCAM1 (TABLE 4)
Procedure: Wells were washed 3 times with TBS+ and blocking buffer (TBS+ with 1% bovine serum albumin), the plate was incubated for 1 hr at 37° C., and then washed 3× with TBS+ buffer. Recombinant human a4b7 (R & D Systems) was diluted to 1 μg/ml in TBS+/0.1% bovine serum albumin. Test compounds were diluted into the integrin solution and added to the washed ligand-coated plate according to a standard template with each sample repeated in triplicate. After incubation for 2 hr at room temperature, the plate was washed 3× with 150 μl of TBS+ buffer. To each well, biotinylated anti-A4 antibody (R & D Systems) at 1 μg/ml in TBS+/0.1% BSA was added and the plate covered and incubated for 1 hr at room temperature. After washing the plate 3× with TBS+ buffer, streptavidin-conjugated horseradish peroxidase (R & D Systems) diluted in TBS+ blocking buffer was added to the wells and the plate incubated for 20 min at room temperature. The plate was washed 3× with TBS+ buffer followed by addition of 50 μl of TMB substrate (Sigma T4444). After incubation for 20 min at room temperature, plates were stopped with TMB stop solution (Sigma S5689) by colorimetric detection at 450 nm wavelength using a Tecan Safire II plate reader.

VLA-4 (a4b1) = VLA-4 (a4b1) (Homo sapiens (Human), UniProt P05556+P13612); experiment: sVCAM flow cytometry cell-based assay (inhibition of soluble VCAM-1 binding to G2 ALL cells);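 note: compounds at 0.1 to 1000 nM preincubated 30 min with G2 ALL cells, then VCAM/Fc added for 30 min, bound VCAM-1 detected by PE secondary antibody, percent binding cells by flow cytometry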
[1] = tested on: hematopoietic stem/progenitor cells (HSPCs); experiment: HSPC mobilization into peripheral blood, colony forming unit (CFU) assay; for HSPC mobilization, result in words: test concentration or dose not given here; for No. CFU (×10^3)/mL ± SD, 6 hr: test concentration or dose not given here; conditions: mice; for No. CFU (x10^3)/mL ± SD, 2 hr: 2 hr post dose (TABLE 11); for No. CFU (x10^3)/mL ± SD, 4 hr: 4 hr post dose (TABLE 11); for No. CFU (x10^3)/mL ± SD, 6 hr: 6 hr post dose (TABLE 11); for No. CFU (x10^3)/mL ± SD, 24 hr: 24 hr post dose (TABLE 11); for No. CFU (×10^3)/mL ± SD, 1 hr: 1 hr post dose (TABLE 20); for No. CFU (×10^3)/mL ± SD, 8 hr: 8 hr post dose (TABLE 20)
[2] = inhibition of sVCAM-1 binding to human G2 ALL cells (TABLE 3), read-out: SVCAM-1, IC50
[3] = as listed in TABLE 9, read-out: sVCAM IC50
[4] = as listed in TABLE 11, read-out: sVCAM IC50
[5] = single dose, peripheral blood, 2 hr post dose (TABLE 9)
[6] = single dose, peripheral blood, 4 hr post dose (TABLE 9)
[7] = single dose, peripheral blood, 6 hr post dose (TABLE 9)
[8] = as listed in TABLE 20, read-out: sVCAM IC50
[9] = single dose, peripheral blood, 4 hr post dose (TABLE 20)

Chain of VLA-4 (a4b1) (P13612 34-1032): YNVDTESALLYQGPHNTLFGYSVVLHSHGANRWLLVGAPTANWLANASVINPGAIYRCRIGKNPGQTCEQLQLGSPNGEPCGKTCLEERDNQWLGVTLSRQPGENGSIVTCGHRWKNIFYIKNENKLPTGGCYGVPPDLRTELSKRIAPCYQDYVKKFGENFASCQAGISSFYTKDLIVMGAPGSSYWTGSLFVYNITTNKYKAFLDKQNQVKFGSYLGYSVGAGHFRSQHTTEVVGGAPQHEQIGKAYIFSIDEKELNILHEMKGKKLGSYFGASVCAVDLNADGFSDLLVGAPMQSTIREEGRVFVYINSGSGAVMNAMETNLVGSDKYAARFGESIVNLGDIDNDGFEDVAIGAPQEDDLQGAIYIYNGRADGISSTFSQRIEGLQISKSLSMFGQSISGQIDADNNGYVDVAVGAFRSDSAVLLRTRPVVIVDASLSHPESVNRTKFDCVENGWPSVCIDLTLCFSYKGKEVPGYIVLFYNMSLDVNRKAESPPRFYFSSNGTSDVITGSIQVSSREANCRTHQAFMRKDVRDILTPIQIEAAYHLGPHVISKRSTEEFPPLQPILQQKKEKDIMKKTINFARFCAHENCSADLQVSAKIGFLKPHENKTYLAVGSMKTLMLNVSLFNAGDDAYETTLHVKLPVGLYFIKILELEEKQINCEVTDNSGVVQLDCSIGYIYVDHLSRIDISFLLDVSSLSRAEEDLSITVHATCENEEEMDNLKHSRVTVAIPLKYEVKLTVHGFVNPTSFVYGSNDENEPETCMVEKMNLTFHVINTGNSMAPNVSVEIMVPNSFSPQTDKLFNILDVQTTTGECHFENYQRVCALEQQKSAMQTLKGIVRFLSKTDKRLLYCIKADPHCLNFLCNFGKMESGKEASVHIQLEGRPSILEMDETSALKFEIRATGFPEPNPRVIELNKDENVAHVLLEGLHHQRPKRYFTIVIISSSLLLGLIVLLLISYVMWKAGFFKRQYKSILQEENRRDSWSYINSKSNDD
Chain of VLA-4 (a4b1) (P05556 21-798): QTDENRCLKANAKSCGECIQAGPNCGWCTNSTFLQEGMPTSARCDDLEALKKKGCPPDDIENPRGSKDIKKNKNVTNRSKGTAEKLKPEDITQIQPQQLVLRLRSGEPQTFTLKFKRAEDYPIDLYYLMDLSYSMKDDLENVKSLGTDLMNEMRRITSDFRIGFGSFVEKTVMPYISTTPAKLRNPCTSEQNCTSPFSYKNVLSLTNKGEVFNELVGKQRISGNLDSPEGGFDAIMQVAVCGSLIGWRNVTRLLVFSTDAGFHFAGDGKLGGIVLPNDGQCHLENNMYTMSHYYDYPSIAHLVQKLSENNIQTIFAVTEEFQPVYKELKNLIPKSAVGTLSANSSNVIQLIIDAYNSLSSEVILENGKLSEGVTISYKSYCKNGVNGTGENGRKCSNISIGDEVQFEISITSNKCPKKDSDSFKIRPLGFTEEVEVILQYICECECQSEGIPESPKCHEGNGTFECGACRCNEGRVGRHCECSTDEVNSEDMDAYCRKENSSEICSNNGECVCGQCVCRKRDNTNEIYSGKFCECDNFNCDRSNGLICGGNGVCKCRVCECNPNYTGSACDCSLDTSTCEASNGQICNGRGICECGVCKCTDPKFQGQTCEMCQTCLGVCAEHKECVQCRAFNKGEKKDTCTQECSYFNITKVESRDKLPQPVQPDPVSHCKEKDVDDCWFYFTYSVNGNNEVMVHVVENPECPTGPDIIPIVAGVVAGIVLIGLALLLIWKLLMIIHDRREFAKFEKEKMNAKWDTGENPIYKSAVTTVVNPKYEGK
Chain of integrin a4b7 (P13612 34-970): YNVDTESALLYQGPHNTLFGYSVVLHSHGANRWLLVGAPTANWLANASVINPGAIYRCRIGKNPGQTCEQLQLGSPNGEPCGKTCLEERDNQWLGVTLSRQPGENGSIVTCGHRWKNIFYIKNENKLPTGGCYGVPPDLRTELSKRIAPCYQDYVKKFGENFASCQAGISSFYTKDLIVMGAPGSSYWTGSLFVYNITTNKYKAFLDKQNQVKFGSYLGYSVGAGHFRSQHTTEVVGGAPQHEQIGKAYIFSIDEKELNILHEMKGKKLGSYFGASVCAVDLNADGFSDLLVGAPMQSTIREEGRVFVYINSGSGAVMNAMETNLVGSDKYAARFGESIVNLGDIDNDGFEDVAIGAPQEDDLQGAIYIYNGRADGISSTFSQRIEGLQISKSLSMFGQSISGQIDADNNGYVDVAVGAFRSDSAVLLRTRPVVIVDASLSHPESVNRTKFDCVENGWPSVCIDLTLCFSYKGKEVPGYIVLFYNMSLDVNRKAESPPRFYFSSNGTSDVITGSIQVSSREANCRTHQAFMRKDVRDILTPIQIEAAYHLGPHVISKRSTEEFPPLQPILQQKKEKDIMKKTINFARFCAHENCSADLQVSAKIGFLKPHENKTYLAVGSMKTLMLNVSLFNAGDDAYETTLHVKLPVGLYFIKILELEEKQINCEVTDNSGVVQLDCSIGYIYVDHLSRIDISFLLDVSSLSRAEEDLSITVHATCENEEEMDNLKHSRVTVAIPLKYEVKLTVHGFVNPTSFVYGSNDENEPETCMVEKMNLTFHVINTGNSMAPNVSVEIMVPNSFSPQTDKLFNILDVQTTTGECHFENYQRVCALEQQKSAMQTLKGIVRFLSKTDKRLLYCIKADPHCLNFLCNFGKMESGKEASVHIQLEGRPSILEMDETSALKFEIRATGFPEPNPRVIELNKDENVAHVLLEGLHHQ
Chain of integrin a4b7 (P26010 20-723): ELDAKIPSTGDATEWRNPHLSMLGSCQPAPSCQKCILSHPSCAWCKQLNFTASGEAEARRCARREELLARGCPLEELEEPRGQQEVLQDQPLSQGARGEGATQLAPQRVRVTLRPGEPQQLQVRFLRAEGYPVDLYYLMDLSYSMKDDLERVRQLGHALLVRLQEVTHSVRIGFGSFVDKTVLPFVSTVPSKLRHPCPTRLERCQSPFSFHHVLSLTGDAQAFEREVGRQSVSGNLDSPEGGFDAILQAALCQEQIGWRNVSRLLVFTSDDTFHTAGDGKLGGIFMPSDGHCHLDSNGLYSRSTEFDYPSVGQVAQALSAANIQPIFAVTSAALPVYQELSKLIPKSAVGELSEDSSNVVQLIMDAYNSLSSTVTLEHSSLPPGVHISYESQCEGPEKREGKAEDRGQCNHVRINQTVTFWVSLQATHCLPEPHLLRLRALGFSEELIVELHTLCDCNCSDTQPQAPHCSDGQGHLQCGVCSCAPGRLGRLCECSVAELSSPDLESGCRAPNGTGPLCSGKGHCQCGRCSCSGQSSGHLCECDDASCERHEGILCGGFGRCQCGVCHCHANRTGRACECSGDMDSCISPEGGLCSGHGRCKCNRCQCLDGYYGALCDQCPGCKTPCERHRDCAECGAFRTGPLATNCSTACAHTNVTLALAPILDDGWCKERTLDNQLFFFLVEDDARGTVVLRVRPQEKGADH

IC50 (integrin a4b7): > 10 µM
Structure (SMILES): Cc1ccccc1NC(=O)Nc1ccc(CC(=O)N(C)[C@@H](CC(C)C)C(=O)NCC[C@H](NC(=O)[C@@H]2CCCN2S(=O)(=O)c2cc(Cl)cc(Cl)c2)C(=O)O)cc1 [BIO5192]

IC50 (VLA-4 (a4b1); as listed in TABLE 8, read-out: sVCAM IC50): 0.552 nM
IC50 (VLA-4 (a4b1); [2]): 0.552 nM
Structure (SMILES): COCCOCCOCCOCCOCCOCCOCCOCCOCCOCCOCCOCCOCCOCCOCCOCCOCCOCCOCCOCCOCCOCCOCCOCCOCCOCCOCCOCCOCCOCCOCCOCCOCCOCCOCCOCCn1cc(COCc2cc(OC)c(-c3ccc(C[C@H](NC(=O)[C@@H]4CCCN4S(=O)(=O)c4cc(Cl)cc(Cl)c4)C(=O)O)cc3)c(OC)c2)nn1 [Example C10, (S)-3-(4′-(((1-(2,5,8,11,14,17,20,23,26,29,32,35,38,41,44,47,50,53,56,59,62,65,68,71,74,77,80,83, 86,89,92,95,98,101,104,107-hexatriacontaoxanonahectan-109-yl)-1H-1,2,3-triazol-4-yl)methoxy)methyl)-2′,6′-dimethoxy-[1,1′-biphenyl]-4-yl)-2-((S)-1-((3,5-dichlorophenyl)sulfonyl)pyrrolidine-2-carboxamido)propanoic Acid]
HSPC mobilization, result in words ([1]; single dose): returning to baseline by 4 hours; also recorded: inferior mobilization at 4 hours compared to Example 3
No. CFU (×10^3)/mL ± SD, 0.25 hr ([1]; single dose, peripheral blood, 0.25 hr post dose (TABLE 8)): 3.87 ± 1.33 (×10^3)/mL
No. CFU (×10^3)/mL ± SD, 2 hr ([1]; single dose, peripheral blood, 2 hr post dose (TABLE 8)): 3.37 ± 1.12 (×10^3)/mL
No. CFU (×10^3)/mL ± SD, 4 hr ([1]; single dose, peripheral blood, 4 hr post dose (TABLE 8)): 0.90 ± 0.52 (×10^3)/mL

IC50 (VLA-4 (a4b1); [3]): 0.573 nM
IC50 (VLA-4 (a4b1); [4]): 0.573 nM
IC50 (VLA-4 (a4b1); as listed in TABLE 17, read-out: sVCAM IC50): 0.573 nM
IC50 (VLA-4 (a4b1); [2]): 0.573 nM
Structure (SMILES): COCCOCCOCCOCCOCCOCCOCCOCCOCc1cc(OC)c(-c2ccc(C[C@H](NC(=O)[C@@H]3CCCN3S(=O)(=O)c3cc(Cl)cc(Cl)c3)C(=O)O)cc2)c(OC)c1 [Example C12, (2S)-2-[[(2S)-1-(3,5-dichlorophenyl)sulfonylpyrrolidine-2-carbonyl]amino]-3-[4-[2,6-dimethoxy-4-[2-[2-[2-[2-[2-[2-[2-(2-methoxyethoxy)ethoxy]ethoxy]ethoxy]ethoxy]ethoxy]ethoxy]ethoxymethyl]phenyl]phenyl]propanoic Acid]
time to which HSPC mobilization is extended after a single dose [1]: ≤ 2 h
No. CFU (×10^3)/mL ± SD, 2 hr ([1]; alone or in combination with Plerixafor and tGroβ, peripheral blood, 2 hr (TABLE 17)): 4.02 ± 1.99 (×10^3)/mL
No. CFU (×10^3)/mL ± SD, 4 hr ([1]; alone or in combination with Plerixafor and tGroβ, peripheral blood, 4 hr (TABLE 17)): 0.90 ± 0.61 (×10^3)/mL
No. CFU (×10^3)/mL ± SD, 6 hr ([1]; alone or in combination with Plerixafor and tGroβ, peripheral blood, 6 hr (TABLE 17)): 0.25 ± 0.08 (×10^3)/mL
HSPC mobilization, result in words ([1]; single dose): returning to baseline by 4 hours and clearly at baseline by 6 hours; also recorded: do not provide the same extended mobilization as the 24 PEG unit analogues
No. CFU (×10^3)/mL ± SD, 2 hr [1, 5]: 2.42 ± 1.06 (×10^3)/mL
No. CFU (x10^3)/mL ± SD, 2 hr ([1]; single dose, peripheral blood): 0.78 ± 0.17 (x10^3)/mL
No. CFU (×10^3)/mL ± SD, 4 hr [1, 6]: 1.19 ± 0.53 (×10^3)/mL
No. CFU (x10^3)/mL ± SD, 4 hr ([1]; single dose, peripheral blood): 0.58 ± 0.19 (x10^3)/mL
No. CFU (×10^3)/mL ± SD, 6 hr [1, 7]: 0.24 ± 0.15 (×10^3)/mL
No. CFU (x10^3)/mL ± SD, 6 hr ([1]; single dose, peripheral blood): 0.22 ± 0.10 (x10^3)/mL
No. CFU (x10^3)/mL ± SD, 24 hr ([1]; single dose, peripheral blood): 0.14 ± 0.07 (x10^3)/mL

IC50 (VLA-4 (a4b1); [3]): 0.673 nM
IC50 (VLA-4 (a4b1); [2]): 0.673 nM
Structure (SMILES): COCCOCCOCCOCCOCCOCCOCCOCCOCCOCCOCCOCCOCc1cc(OC)c(-c2ccc(C[C@H](NC(=O)[C@@H]3CCCN3S(=O)(=O)c3cc(Cl)cc(Cl)c3)C(=O)O)cc2)c(OC)c1 [Example C13, (S)-2-((S)-1-((3,5-dichlorophenyl)sulfonyl)pyrrolidine-2-carboxamido)-3-(2′,6′-dimethoxy-4′-(2,5,8,11,14,17,20,23,26,29,32,35,38-tridecaoxanonatriacontyl)-[1,1′-biphenyl]-4-yl)propanoic Acid]
HSPC mobilization, result in words ([1]; single dose): returning to baseline by 4 hours and clearly at baseline by 6 hours
No. CFU (×10^3)/mL ± SD, 2 hr [1, 5]: 2.01 ± 0.75 (×10^3)/mL
No. CFU (×10^3)/mL ± SD, 4 hr [1, 6]: 0.41 ± 0.19 (×10^3)/mL
No. CFU (×10^3)/mL ± SD, 6 hr [1, 7]: 0.10 ± 0.04 (×10^3)/mL

IC50 (VLA-4 (a4b1); [3]): 0.702 nM
IC50 (VLA-4 (a4b1); as listed in TABLE 10, read-out: sVCAM IC50): 0.702 nM
IC50 (VLA-4 (a4b1); [2]): 0.702 nM
Structure (SMILES): COCCOCCOCCOCCOCCOCCOCCOCCOCCOCCOCCOCCOCCOCCOCCOCCOCc1cc(OC)c(-c2ccc(C[C@H](NC(=O)[C@@H]3CCCN3S(=O)(=O)c3cc(Cl)cc(Cl)c3)C(=O)O)cc2)c(OC)c1 [Example C14, (S)-3-(4′-(2,5,8,11,14,17,20,23,26,29,32,35,38,41,44,47,50-heptadecaoxahenpentacontyl)-2′,6′-dimethoxy-[1,1′-biphenyl]-4-yl)-2-((S)-1-((3,5-dichlorophenyl)sulfonyl)pyrrolidine-2-carboxamido)propanoic Acid]
HSPC mobilization, result in words ([1]; single dose): returning to baseline by 4 hours and clearly at baseline by 6 hours; also recorded: returning to baseline at 4 hours and affords no mobilization effects at 6 hours
No. CFU (×10^3)/mL ± SD, 2 hr [1, 5]: 3.17 ± 1.17 (×10^3)/mL
No. CFU (×10^3)/mL ± SD, 2 hr ([1]; single dose, peripheral blood, 2 hr post dose (TABLE 10)): 3.40 ± 1.42 (×10^3)/mL
No. CFU (×10^3)/mL ± SD, 4 hr [1, 6]: 0.50 ± 0.25 (×10^3)/mL
No. CFU (×10^3)/mL ± SD, 4 hr ([1]; single dose, peripheral blood, 4 hr post dose (TABLE 10)): 0.82 ± 0.47 (×10^3)/mL
No. CFU (×10^3)/mL ± SD, 6 hr [1, 7]: 0.08 ± 0.11 (×10^3)/mL
No. CFU (×10^3)/mL ± SD, 6 hr ([1]; single dose, peripheral blood, 6 hr post dose (TABLE 10)): 0.25 ± 0.16 (×10^3)/mL

IC50 (VLA-4 (a4b1); [4]): 0.155 nM
IC50 (VLA-4 (a4b1); [2]): 0.155 nM
Structure (SMILES): COCCOCCOCCOCCOCCOCCOCCOCCSCc1cc(OC)c(-c2ccc(C[C@H](NC(=O)[C@@H]3CCCN3S(=O)(=O)c3cc(Cl)cc(Cl)c3)C(=O)O)cc2)c(OC)c1 [Example C16]
No. CFU (x10^3)/mL ± SD, 2 hr ([1]; single dose, peripheral blood): 2.34 ± 0.55 (x10^3)/mL
No. CFU (x10^3)/mL ± SD, 4 hr ([1]; single dose, peripheral blood): 1.14 ± 0.86 (x10^3)/mL
No. CFU (x10^3)/mL ± SD, 6 hr ([1]; single dose, peripheral blood): 0.38 ± 0.24 (x10^3)/mL
No. CFU (x10^3)/mL ± SD, 24 hr ([1]; single dose, peripheral blood): 0.14 ± 0.06 (x10^3)/mL

IC50 (VLA-4 (a4b1); [8]): 98.7 nM
IC50 (VLA-4 (a4b1); [2]): 98.7 nM
Structure (SMILES): Cc1cccc(Cl)c1C(=O)N[C@@H](Cc1ccc(NC(=O)c2c(Cl)cccc2Cl)cc1)C(=O)O [RO0270608]
HSPC mobilization, result in words ([1]; single dose): lack of any appreciable HSC mobilization
No. CFU (×10^3)/mL ± SD, 1 hr ([1]; single dose, peripheral blood): 0.64 ± 0.41 (×10^3)/mL
No. CFU (×10^3)/mL ± SD, 4 hr [1, 9]: 0.19 ± 0.06 (×10^3)/mL
No. CFU (×10^3)/mL ± SD, 8 hr ([1]; single dose, peripheral blood): 0.11 ± 0.05 (×10^3)/mL

IC50 (VLA-4 (a4b1); [8]): 247 nM
IC50 (VLA-4 (a4b1); [2]): 247 nM
Structure (SMILES): COc1cccc(OC)c1-c1ccc(C[C@H](NC(=O)c2c(Cl)cccc2Cl)C(=O)O)cc1 [TR-14035]
No. CFU (×10^3)/mL ± SD, 1 hr ([1]; single dose, peripheral blood): 0.54 ± 0.15 (×10^3)/mL
No. CFU (×10^3)/mL ± SD, 4 hr [1, 9]: 0.18 ± 0.13 (×10^3)/mL
No. CFU (×10^3)/mL ± SD, 8 hr ([1]; single dose, peripheral blood): 0.10 ± 0.05 (×10^3)/mL
